Source: ChEMBL document CHEMBL5257079, “Discovery of FXR/PPARγ dual partial agonist” (Bioorg Med Chem, 2023)
pIC50: −log10 of the molar value. Calls of active or inactive are those of the source. The calls are words filed in the database; no cut-off is given here.

Assays:
[1] = target: T1, Bile acid receptor (Homo sapiens) (UniProt Q96RI1); assay: Partial agonist activity at human FXR expressed in Huh-7 cells in presence of CDCA by luciferase reporter gene assay relative to GW4064; format: cell-based
T1 sequence (whole entry): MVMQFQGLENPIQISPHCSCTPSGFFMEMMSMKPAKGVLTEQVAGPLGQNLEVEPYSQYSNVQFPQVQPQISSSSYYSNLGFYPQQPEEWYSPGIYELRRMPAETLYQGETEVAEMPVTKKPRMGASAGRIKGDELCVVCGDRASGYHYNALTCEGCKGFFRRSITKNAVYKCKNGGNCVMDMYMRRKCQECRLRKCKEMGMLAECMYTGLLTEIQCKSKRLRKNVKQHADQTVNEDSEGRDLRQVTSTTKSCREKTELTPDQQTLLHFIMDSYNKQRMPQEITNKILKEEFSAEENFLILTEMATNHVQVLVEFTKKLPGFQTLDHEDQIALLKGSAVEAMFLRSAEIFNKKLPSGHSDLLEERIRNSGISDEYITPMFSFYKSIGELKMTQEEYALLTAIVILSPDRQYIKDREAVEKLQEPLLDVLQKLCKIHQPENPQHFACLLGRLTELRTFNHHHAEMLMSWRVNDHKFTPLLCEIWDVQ

Bile acid receptor = target: T2, Bile acid receptor (Homo sapiens, UniProt Q96RI1); assay: Antagonist activity at FXR-LBD-GST (unknown origin) in presence of GW4064
T2 sequence (Q96RI1 whole entry): T1 sequence (whole entry)

[2] = target: T1, Bile acid receptor (Homo sapiens); assay: Partial agonist activity at FXR in human Huh-7 cells assessed as reduction in CDCA-induced BSEP gene expression at 10 uM by RT-PCR analysis; format: cell-based; settings: filed as partial agonist
[3] = target: T1, Bile acid receptor (Homo sapiens); assay: Partial agonist activity at FXR in human Huh-7 cells assessed as reduction in CDCA-induced OSTalpha gene expression at 10 uM by RT-PCR analysis; format: cell-based; settings: filed as partial agonist
[4] = target: T1, Bile acid receptor (Homo sapiens); assay: Partial agonist activity at FXR in human Huh-7 cells assessed as reduction in CDCA-induced FAS gene expression at 10 uM by RT-PCR analysis; format: cell-based; settings: filed as partial agonist
[5] = target: T1, Bile acid receptor (Homo sapiens); assay: Partial agonist activity at FXR in human Huh-7 cells assessed as reduction in CDCA-induced SREBP gene expression at 10 uM by RT-PCR analysis; format: cell-based; settings: filed as partial agonist
[6] = target: T1, Bile acid receptor (Homo sapiens); assay: Partial agonist activity at FXR in human Huh-7 cells assessed as reduction in CDCA-induced SHP gene expression at 10 uM by RT-PCR analysis; format: cell-based; settings: filed as partial agonist
[7] = target: T1, Bile acid receptor (Homo sapiens); assay: Activation of FXR (unknown origin) at 10 uM; settings: filed as activator
[8] = target: T3, Oxysterols receptor LXR-alpha (Homo sapiens) (UniProt Q13133); assay: Activation of LXR alpha (unknown origin) at 10 uM
T3 sequence (whole entry): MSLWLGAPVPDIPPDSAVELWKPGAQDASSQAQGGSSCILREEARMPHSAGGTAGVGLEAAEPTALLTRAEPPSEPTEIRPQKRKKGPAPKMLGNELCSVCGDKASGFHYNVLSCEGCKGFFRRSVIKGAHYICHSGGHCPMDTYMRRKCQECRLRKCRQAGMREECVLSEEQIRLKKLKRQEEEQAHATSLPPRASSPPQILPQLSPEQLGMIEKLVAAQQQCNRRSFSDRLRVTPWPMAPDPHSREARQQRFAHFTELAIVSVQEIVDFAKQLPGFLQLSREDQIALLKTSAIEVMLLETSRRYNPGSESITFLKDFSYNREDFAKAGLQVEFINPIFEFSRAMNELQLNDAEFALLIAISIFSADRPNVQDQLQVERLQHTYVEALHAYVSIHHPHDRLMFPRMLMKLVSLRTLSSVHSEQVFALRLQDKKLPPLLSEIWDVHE

[9] = target: T4, Vitamin D3 receptor (Homo sapiens) (UniProt P11473); assay: Activation of VDR (unknown origin) at 10 uM
T4 sequence (whole entry): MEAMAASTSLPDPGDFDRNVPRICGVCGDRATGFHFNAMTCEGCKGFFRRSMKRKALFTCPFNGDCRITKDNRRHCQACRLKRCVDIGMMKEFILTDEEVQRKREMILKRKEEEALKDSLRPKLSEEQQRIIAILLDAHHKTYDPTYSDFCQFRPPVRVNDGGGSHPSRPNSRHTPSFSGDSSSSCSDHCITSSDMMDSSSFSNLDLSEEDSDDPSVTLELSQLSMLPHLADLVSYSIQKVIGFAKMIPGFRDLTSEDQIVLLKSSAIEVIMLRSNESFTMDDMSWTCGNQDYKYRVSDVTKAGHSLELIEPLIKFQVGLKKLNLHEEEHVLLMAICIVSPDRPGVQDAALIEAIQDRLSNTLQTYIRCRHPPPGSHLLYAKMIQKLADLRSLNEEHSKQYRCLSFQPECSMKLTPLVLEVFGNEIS

[10] = target: T5, Retinoic acid receptor alpha (Homo sapiens) (UniProt P10276); assay: Activation of RARalpha (unknown origin) at 10 uM
T5 sequence (whole entry): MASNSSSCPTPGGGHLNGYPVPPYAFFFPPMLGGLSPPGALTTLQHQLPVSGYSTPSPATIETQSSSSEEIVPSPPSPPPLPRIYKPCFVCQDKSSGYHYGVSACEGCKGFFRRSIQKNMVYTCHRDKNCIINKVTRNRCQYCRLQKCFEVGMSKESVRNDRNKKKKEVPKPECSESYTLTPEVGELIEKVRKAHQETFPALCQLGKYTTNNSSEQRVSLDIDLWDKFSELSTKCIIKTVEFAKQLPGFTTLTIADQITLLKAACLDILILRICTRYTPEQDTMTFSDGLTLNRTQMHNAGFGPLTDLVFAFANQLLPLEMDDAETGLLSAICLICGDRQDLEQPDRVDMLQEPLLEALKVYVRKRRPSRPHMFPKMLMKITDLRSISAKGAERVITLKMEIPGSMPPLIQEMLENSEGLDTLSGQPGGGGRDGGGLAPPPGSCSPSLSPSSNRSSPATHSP

[11] = Metabolic stability in mouse liver microsomes assessed as parent compound remaining after 30 mins; format: ADME, Microsome; settings: read-out: Stability
[12] = Metabolic stability in mouse liver microsomes assessed as half life; format: ADME, Microsome

Activity [1]: 35.6% | pIC50 (Bile acid receptor): 4.68 | Activity [3]: Active | Activity [4]: Active | Activity [5]: Active | Activity [6]: Active | Activity [7]: Active | Activity [8]: inactive | Activity [9]: inactive | Activity [10]: inactive | remaining at 0.5 h [11]: 69.5% | half-life [12]: 57 min
SMILES: CC(C)(C)c1ccc(-n2cnc3c(NC(=O)Cc4ccc(C(=O)O)cc4)cccc32)cc1
Activity [2]: Active
